This is an account of results in patent US20220274967A1, “BCAT MODULATION” (Icagen, LLC, priority 2019, published 2022).

One may read the IC50 as the concentration at which inhibition is half-maximal.

One assay addresses T1, BCAT2 (Homo sapiens, UniProt O15382).
T1 sequence (O15382 28-392): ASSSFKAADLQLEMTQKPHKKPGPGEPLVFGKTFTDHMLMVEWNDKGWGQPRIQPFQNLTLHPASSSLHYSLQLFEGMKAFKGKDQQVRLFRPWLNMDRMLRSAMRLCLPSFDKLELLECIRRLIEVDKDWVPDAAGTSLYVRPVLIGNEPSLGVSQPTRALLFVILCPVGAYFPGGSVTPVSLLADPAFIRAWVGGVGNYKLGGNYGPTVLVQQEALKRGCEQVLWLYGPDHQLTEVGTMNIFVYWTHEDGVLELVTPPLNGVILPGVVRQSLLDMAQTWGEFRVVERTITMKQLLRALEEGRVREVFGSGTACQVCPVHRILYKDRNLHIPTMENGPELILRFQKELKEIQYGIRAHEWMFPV
The assay can be described thus: BCAT2 enzyme inhibition (human). In kind it is biochemical. Summed up: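 Cell-free coupled fluorescent assay: human BCATm converts branched-chain amino acids and α-ketoglutarate to L-glutamate, which L-glutamate oxidase and HRP link to resorufin formation from Amplex Red; activity taken as reduced glutamate signal.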

The nature of assay [1]: 3-HIB assay in vitro, direct MS assay of conditioned media. In kind it is cell-based, human. The settings on record: Homo sapiens, 24 h, GM00371 cells, read-out: 3HIB INHIBITION IC50 (μM) MEAN GM00371 cells Direct MS Assay. How it is done: Cell Plating: Cells (Coriell Institute GM00371 cells) were plated (96-well clear bottom sterile plate; Greiner 655098) at 10,000 cells/0.1 mL in Eagle's minimum essential medium (EMEM)/15% FBS (Gibco 16000-044) with a Combi dispenser in a cell culture hood and incubated at 37° C. and 5% CO2 overnight.
Compound Dilution: Compound were prepared as 33.3× intermediate dilution in DMSO in 96 well round polystyrene plates. For 30 μM final maximum start with 30 μL of 10 mM in DMSO. 10-12 1:3 serial dilutions were prepared from left to right (20 μL+40 μL DMSO). A 10× secondary dilution was prepare in EMEM by taking 7.5 μL 33.3× and transfer to replicate 96 well round polystyrene plates and then adding 242.5 μL EMEM A 1× final dilution in EMEM was prepared by taking 50 μL 10× dilution and transferring to replicate 96 well polypropylene assay block (Costar 3956) and adding 450 μL EMEM A control was prepared for maximal compound inhibition by taking 20 μL 10 mM Reference Compound A and adding 40 μL DMSO for a concentration of 3.3 mM To 7.5 μL of the 3.3 mM Reference Compound A solution and added 242.5 μL EMEM to make a 100 μM solution. The subsequent Reference Compound A solution was diluted with EMEM to achieve a final concentration of 10 μM. The structure of Reference Compound A is:
A control was prepared for maximal compound toxicity by taking 7.5 μL Reference Compound B and 242.5 μL EMEM to make […]. 50 μL of that 100 μM Reference Compound B solution was combined with 450 μL EMEM to achieve a concentration of 30 μM. The structure of Reference Compound B is
A DMSO Control was prepared by dilution 7.5 μL with 242.5 μL EMEM and taking 50 μL of the subsequent solution and diluting with 450 μL EMEM.
Compound Treatment: Media was aspirated from the cells and 100 μL of D-PBS (ThermoFisher 14190144) was added and then removed. 100 μL of diluted compound was added to the cells in the place and the cells were incubated at 37° C. and 5% CO2 for 24 hours.
Collection of Conditioned Media: For 3HIB MS detection: 20 μL conditioned media was removed from the cells and was transferred to a labeled replicate 96 well polypropylene assay plate (VWR 62408-946). And the plate was heat sealed and stored at −80° C.
3HIB Derivatization (Generalized SOP): The media collected for 3HIB MS detection was derivatized under the following conditions. Buffer: 0.1M 1-Ethyl-3-(3-dimethylaminopropyl)carbodiimide (EDC) dissolved in 0.1 M 2-(N-morpholino)ethanesulfonic acid ([…]) adjusted to pH 5.6. Buffer prep: weighed 10.6 g MES (Sigma #M-5287) per 500 mL HPLC grade H2O. Stored at 4° C.; 0.1M EDC: Weighed 1.971 g EDC (#E-1769) per 100 mL MES. Adjusted pH to 5.6 with ˜40 drops of 1N NaOH and stored at 4° C. Buffer has a short half-life should be used within two weeks.
Derivatization: To 20 μL sample was added 60 μL 5 uM 3HIB-4C13 internal standard followed by 20 μL EDC in MES and 100 μL MES. The plate was sealed and incubate at 50° C. for […] then centrifuged at 4000 rpm at 6° C. for 10 minutes. LC-MS analysis was then conducted and the data was processed using standard methods.

The target of the next assay is T2, BCAT1 (Homo sapiens, UniProt P54687).
T2 sequence (P54687 1-386): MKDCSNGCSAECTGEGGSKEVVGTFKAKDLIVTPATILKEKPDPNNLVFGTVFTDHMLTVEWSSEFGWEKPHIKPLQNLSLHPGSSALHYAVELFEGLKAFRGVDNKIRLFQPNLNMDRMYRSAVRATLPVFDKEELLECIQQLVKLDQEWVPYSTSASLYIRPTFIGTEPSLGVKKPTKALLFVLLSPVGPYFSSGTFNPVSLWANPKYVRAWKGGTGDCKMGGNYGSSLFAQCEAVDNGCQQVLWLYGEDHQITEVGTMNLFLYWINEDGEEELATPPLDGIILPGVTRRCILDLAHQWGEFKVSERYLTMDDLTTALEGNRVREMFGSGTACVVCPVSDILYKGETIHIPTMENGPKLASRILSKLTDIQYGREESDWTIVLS
Put plainly: BCAT1 enzyme inhibition (human), Glutamate Glo luminescence. The format is biochemical. Here is the method:
The BCAT1 inhibitory activity of selected compounds of the present disclosure were also evaluated. Compounds were prepared as up to 10 mM stock solutions generally using DMSO as the vehicle. 10-point dose response curves were generated using the Echo-550 (Labcyte) acoustic dispenser. Compound source plates ([…]) were made by serially diluting compound stocks to create 1 mM, 0.1 mM, and 0.01 mM solutions in DMSO into Echo certified LDV plates. The Echo then serially spotted 100% DMSO stock solutions into source dose response plates to generate a semi-log fold dilution scheme. 100% DMSO was added to the spotted dose response plates to bring the final volume to 5 μL, creating a 333× stock plate. 120 nL of the dose response stock plate was then spotted into the assay plate. 10 μL of assay buffer (50 mM Tris with 0.05% TWEEN-20) was then added to the plates resulting in a 4× working concentration in the assay plate. Final assay test concentration range was 3 μM to 0.0001 μM with a final DMSO concentration of 0.3%.
BCAT1 enzyme stock was first diluted to a 4× working concentration of 0.24 μg/mL in assay buffer (final assay concentration is 0.06 ug/ml). 10 μL of the 4×BCAT1 solution was then added to the previously prepared assay plate containing test compound or controls, and incubated at room temperature, protected from light, for either 10 or 60 minutes. After the compound incubation period, 20 μL of assay buffer plus 2× substrate is added to all wells (Final assay concentration of substrates is 300 μM L-leucine and 250 μM alpha-ketoglutaric acid). Enzyme reaction was then incubated for 10 minutes at room temperature. After the 10 minute incubation, the enzymatic reaction was halted with the addition of 5 μL of 0.6N HCl and incubated for 1 min. 5 μL of 1M Tris (pH 8.0) was then added to neutralize pH. 12.5 μL of the quenched assay volume was then transferred to a white, 384 well plate and 12.5 μL of Glutamate detection reagent was added (detection reagent prepared per Promega Glutamate Glo kit instructions). Plates were then incubated for 30 minutes at room temperature, protected from light. After glutamate detection incubation period, luminescence was read on BMG Novostar and relative light units was measured and exported for analysis.
Compound modulation of BCAT1 enzymatic activity was determined as follows. IC50 values were calculated in ActivityBase, using a 4-parameter fit equation. Data was normalized to maximum inhibition form the reference agent VS558CSA (at 10 μM). Relative light units were exported for analysis and % inhibition values for each well were calculated using the following formula: […]

In a further assay the test system is GM00371 cells. The assay can be described thus: Viability assay (Cell titer glo) in the 3-HIB assay. In kind it is cell-based, human. The settings on record: Homo sapiens, 24 h, read-out: 3HIB INHIBITION IC50 (μM) MEAN GM00371 cells Viablility Assay. In short, it runs like this:
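GM00371 cells (10,000/well, EMEM/15% FBS) were exposed for 24 h at 37 °C to compounds in 1:3 serial dilution from 30 μM top concentration in EMEM. Reference Compound B at 30 μM served as maximal-toxicity control. Viability read as CellTiter-Glo luminescence.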

Turning to `CNC(=O)c1ccc2c(c1)nc(-c1ccc(F)cc1O)n2[C@H]1CCC[C@@H](NC(=O)c2ccc(C#N)s2)C1` [Compound 188], the IC50 on BCAT2 was less than 100 nM; in assay [1], 0.1 to 0.5 µM.
In the case of `CNC(=O)c1cc2nc(-c3sccc3F)n([C@H]3CCC[C@@H](NC(=O)c4ccc(Cl)s4)C3)c2cc1F` [Compound 230], the IC50 is less than 100 nM on BCAT2, 500 to 1000 nM against BCAT1 and not below 1 µM with GM00371 cells.
As for `CNC(=O)c1cc2nc(-c3cccc(F)c3)n(C3CCC[C@@H](NC(=O)c4ccc(Cl)s4)C3)c2cc1F` (some centres unmarked) [Compound 224], the IC50 on BCAT2 is less than 100 nM; against BCAT1, 100 to 500 nM; in the assay with GM00371 cells, 0.1 to 0.5 µM.
For `CNC(=O)c1ccc2c(c1)nc(-c1ccccc1C(F)F)n2C1CCC[C@@H](NC(=O)c2ccc(Br)s2)C1` (some centres unmarked) [Compound 223], the IC50 at BCAT2 was less than 100 nM; against BCAT1, less than 100 nM; with GM00371 cells, 0.1 to 0.5 µM.
For the molecule `CNC(=O)c1ccc2c(c1)nc(-c1ccccc1OC(F)(F)F)n2[C@H]1CCC[C@@H](NC(=O)c2ccc(Br)s2)C1` [Compound 166], the IC50 at BCAT2 is less than 100 nM; on BCAT1 it was 500 to 1000 nM; with GM00371 cells it was 0.1 to 0.5 µM.
`CNC(=O)c1ccc2c(c1)nc(-c1ccccc1[N+](=O)[O-])n2C1CCCC(NC(=O)c2ccc(C#N)s2)C1` (centres unmarked) [Compound 200]: the values for the IC50 on BCAT2, against BCAT1 and with GM00371 cells were less than 100 nM, 100 to 500 nM and not below 1 µM, respectively.
On to `CNC(=O)c1cc2nc(-c3ccccc3F)n([C@H]3CCC[C@@H](NC(=O)c4ccc(Cl)s4)C3)c2cc1F` [Compound 206], for which the figures for the IC50 against BCAT2, against BCAT1 and with GM00371 cells were less than 100 nM, less than 100 nM and 0.1 to 0.5 µM, respectively.
As for `CNC(=O)c1cc2nc(-c3cccc(F)c3)n(C3CCC[C@@H](NC(=O)c4ccc(F)s4)C3)c2cc1F` (some centres unmarked) [Compound 225], the IC50 is less than 100 nM against BCAT2, not below 1000 nM at BCAT1 and not below 1 µM with GM00371 cells.
As for `CC(=O)c1ccc2c(c1)nc(-c1ccccn1)n2[C@H]1CCC[C@@H](NC(=O)c2ccc(Br)s2)C1` [Compound 196], the results for the 50% inhibitory concentration (IC50) against BCAT2, at BCAT1 and with GM00371 cells were less than 100 nM, not below 1000 nM and not below 1 µM, respectively.
Turning to `CNC(=O)c1ccc2c(c1)nc(-c1ccccc1C(F)F)n2C1CCC[C@@H](NC(=O)c2ccc(Cl)s2)C1` (some centres unmarked) [Compound 222], the IC50 was less than 100 nM against BCAT2, 100 to 500 nM against BCAT1 and 0.1 to 0.5 µM with GM00371 cells.
With `CNC(=O)c1cc2nc(-c3ccccc3F)n(C3CCC[C@@H](NC(=O)c4ccc(F)s4)C3)c2cc1F` (some centres unmarked) [Compound 226], the IC50 was less than 100 nM at BCAT2, 100 to 500 nM at BCAT1 and 0.5 to 1 µM with GM00371 cells.
For `CNC(=O)c1ccc2c(c1)nc(-c1ccccc1C(F)F)n2C1CCC[C@@H](NC(=O)c2ccc(C#N)s2)C1` (some centres unmarked) [Compound 221] the same measures were less than 100 nM, 100 to 500 nM and not below 1 µM.
On to `CNC(=O)c1cc2nc(-c3ccccc3C)n([C@H]3CCC[C@@H](NC(=O)c4ccc(Cl)s4)C3)c2cc1F` [Compound 205], for which the figures for the IC50 against BCAT2, against BCAT1 and with GM00371 cells were less than 100 nM, 100 to 500 nM and not below 1 µM, respectively.
Consider `CNC(=O)c1ccc2c(c1)nc(-c1ccccn1)n2[C@H]1C[C@@H](NC(=O)c2ccc(Br)s2)CC(F)(F)C1` [Compound 239], for which the IC50 is 100 to 500 nM against BCAT2, not below 1000 nM at BCAT1 and 0.1 to 0.5 µM in the assay on GM00371 cells.
Regarding `CNC(=O)c1ccc2c(c1)nc(-c1ccccc1C(N)=O)n2[C@H]1CCC[C@@H](NC(=O)c2ccc(Br)s2)C1` [Compound 143], the figures for the IC50 against BCAT2, at BCAT1 and with GM00371 cells were less than 100 nM, not below 1000 nM and not below 1 µM, respectively.
With `CNC(=O)c1ccc2c(c1)nc(-c1sccc1C)n2[C@H]1CCC[C@@H](NC(=O)c2ccc(Br)s2)C1` [Compound 169], the results for the IC50 against BCAT2, at BCAT1 and in the assay with GM00371 cells were less than 100 nM, not below 1000 nM and not below 1 µM, respectively.
With `CNC(=O)c1ccc2c(c1)nc(-c1ncccc1F)n2[C@H]1CCC[C@@H](NC(=O)c2ccc(C#N)s2)C1` [Compound 198], the IC50 on BCAT2 is less than 100 nM; against BCAT1, 100 to 500 nM; with GM00371 cells, not below 1 µM.
As to `O=C(N[C@@H]1CCC[C@H](n2c(-c3ncccc3F)nc3cnccc32)C1)c1ccc(Br)s1` [Compound 284], the IC50 was less than 100 nM at BCAT2, 100 to 500 nM against BCAT1 and not below 1 µM with GM00371 cells.
